We go through one compound from EP4144350B1, “TREATMENT OR PREVENTION OF VASCULAR MALFORMATION” (Universitätsmedizin Greifswald, priority 2021, dated 2023).

One data set relates to caspase-3. Briefly: Caspase-3 activity assay. Format: cell-based, human. As to the method:
The proliferation rate of mutant and wild-type ECs in monoculture was quantified with the CyQuant® Cell Proliferation Assay Kit (C7026, Thermo Fisher Scientific). To discriminate the proliferation rates of CCM3^+/+ and CCM3^-/- CI-huVEC in co-culture, the CyQuant® Cell Proliferation Assay results were combined with mutant allele frequencies that had been determined by amplicon deep sequencing. To analyse their sensitivity to apoptosis, mutant and wild-type ECs were seeded in 96-well plates with 15.000 cells per well, and treated with staurosporine (S440, Sigma-Aldrich, St. Louis, MO, USA) 24 h later. The Caspase-3 DEVD-R110 Fluorometric HTS Assay Kit (30009, Biotium, Fremont, CA, USA), the Cell Meter™ Caspase 8 Activity Apoptosis Assay Kit (22798, AAT Bioquest, Sunnyvale, CA, USA), and the Cell Meter™ Caspase 9 Activity Apoptosis Assay Kit (22799, AAT Bioquest) were used following the manufacturer's instructions.

The test system of the next data set is CCM3^-/- CI-huVECs. In words: Targeted RNA sequencing (apoptosis and cell death panel). Format: cell-based, human. Conditions: 10 µM, 24 h. From the text: RNA was extracted using the PeqGold TriFast reagent (Peqlab-VWR, Radnor, PA, USA) and purified using the Direct-zol RNA MiniPrep Plus Kit (Zymo Research, Irvine, CA, USA). A Qubit 4.0 (Thermo Fisher Scientific) and the Qubit RNA BR Assay Kit (Q10211, Thermo Fisher Scientific) were used to measure RNA concentrations. RNA sample integrity was controlled on a 2100 Bioanalyzer using the RNA 6000 Nano Kit (Agilent, Santa Clara, CA, USA). A QIAseq Targeted Human Apoptosis and Cell Death RNA Panel (RHS-002Z, QIAGEN, Hilden, Germany) was used to prepare RNA sequencing libraries according to the manufacturer's instructions. After quality control with the High Sensitivity DNA Kit on a 2100 Bioanalyzer instrument (Agilent), the pooled libraries were sequenced on a MiSeq (Illumina) with 1x151 cycles. Differential gene expression of RNA sequencing data was carried out using the QIAseq Targeted RNA Primary and Secondary Analysis Tool (QIAGEN).

Data set [1] has as its system CCM3^+/+ and CCM3^-/- CI-huVECs. In words: Cell viability after compound treatment. Conditions: 72 h after treatment (Fig. 15). Format: cell-based, human.
The subject of the next data set is CCM3^-/- BMECs. In words: hiPSC-derived BMEC co-culture, fluorescent imaging of clonal expansion. It counts as cell-based, human. Particulars: 10 µM for six days, released, another six days under standard conditions. As to the method: Fluorescently tagged human induced pluripotent stem cells (Coriell Institute, Camden, NJ, USA) were maintained at 37 °C and 5 % CO2 in Essential 8 Flex medium (Thermo Fisher Scientific, Waltham, MA, USA) on plates coated with growth factor reduced matrigel (Corning Inc., Corning, NY, USA). Cells were passaged with 0.5 mM EDTA (Thermo Fisher Scientific). The following endogenously tagged cell lines as part of the Allen Cell Collection (Coriell Institute) were used: AICS-0036-006:WTC-mEGFP-Safe harbor locus (AAVS1)-cl6 and AICS-0054-091:WTC-mTagRFPT-CAAX-Safe harbor locus (AAVS1)-cl91.
CCM3^+/+ AICS-0054 hiPSCs, CCM3^+/+ and CCM3^-/- AICS-0036 hiPSCS were differentiated into human brain microvacular endothelial-like cells (hBMECs). Briefly, 158,000 cells were seeded in Essential 8 Flex medium containing 10 µM Y-27632 on growth factor reduced Matrigel-coated 6-well plates. After 24 h, differentiation was initiated by substitution of Essential 8 Flex with Essential 6 medium (Thermo Fisher Scientific). Medium was changed daily for 4 days. […] The ratio of EGFP-tagged AICS-0036 cells compared to all cells was determined using the ImageJ software. […]

The test system of a further data set is colon-tumour xenografts. Conditions: cited from earlier work.

On to `CN1CCN(C(=O)/C=C/c2ccc([N+](=O)[O-])o2)CC1` [NSC59984, (E)-1-(4-methylpiperazin-1-yl)-3-(5-nitrofuran-2yl)prop-2-en-1-one], for which the “Apoptosis / caspase-3 activation” value in the data set on caspase-3 (Fig. 16) is given as “induced apoptosis at a tolerable level”. Further, the Caspase-3 activities result in the data set with caspase-3 (treatment for 24 h, CCM3^+/+ and CCM3^-/- CI-huVECs (Fig. 16)) was “did not increase caspase-3 activities”. In the data set with CCM3^-/- CI-huVECs, the “Expression of CDKN1A (p21), FC (fold change NSC59984 vs. DMSO treatment)” value came out at 2.33; the “Expression of GADD45A, FC (fold change NSC59984 vs. DMSO treatment)” value turned out to be 2.11; the “Expression of apoptosis-related p53 target genes BBC3 (PUMA) or PMAIP1 (Noxa)” value is “unaffected”. The “Cell viability differences between CCM3^+/+ and CCM3^-/- CI-huVECs” value in data set [1] is given as “No cell viability differences”. Further, the “Clonal expansion of CCM3^-/- BMECs in co-culture” value in the data set on CCM3^-/- BMECs was “blocked the clonal expansion of CCM3^-/- BMECs in co-culture”. For the same compound, in the data set with colon-tumour xenografts, the “Adverse effects in xenograft mice” value is “Without apparent adverse effects”. Moreover, the “Growth of colon-tumour xenografts” value with colon-tumour xenografts (mice) is recorded as “repressed the growth of colon-tumour xenografts in mice”.
